Reference: US20230085307A1, “PYRIDAZINONE COMPOUND AND HERBICIDE” (NISSAN CHEMICAL CORPORATION, priority 2019, published 2023)

Assays:
Italian ryegrass [1] = experiment: Test Example 5: herbicidal effect by foliage application, plastic box (Table 20, symbol K); assay type: in vivo, Italian ryegrass (Lolium multiflorum); conditions: amount of applied herbicide 320 g/ha; foliage application after 14-day growth; evaluated three weeks after application
Procedure, shortened: (§1)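 Sow seeds spot-wise in sterilized diluvial soil; cover with ~1.5 cm soil. Grow 14 days in greenhouse, 25° C. to 30° C. Spray foliage with emulsion diluted to predetermined amount. Rate effect after 3 weeks.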

redroot pigweed [2] = experiment: Test Example 4: herbicidal effect by soil treatment (Table 19, symbol N); assay type: in vivo, redroot pigweed (Amaranthus retroflexus); conditions: amount of applied herbicide 320 g/ha
Procedure, shortened: (§2)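 Soil-surface application: an emulsion agent diluted with water to the predetermined dose is sprayed uniformly over seeds lying under roughly 1.5 cm of sterilized diluvial soil. Boxes stay in a greenhouse at 25° C. to 30° C. Three weeks later, each species is graded on previously defined criteria.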

velvetleaf [3] = experiment: Test Example 4: herbicidal effect by soil treatment (Table 19, symbol M); assay type: in vivo, velvetleaf (Abutilon theophrasti); conditions: amount of applied herbicide 320 g/ha
Procedure, shortened: as §2

barnyard grass [4] = experiment: Test Example 4: herbicidal effect by soil treatment (Table 19, symbol H); assay type: in vivo, barnyard grass (Echinochloa crus-galli); conditions: amount of applied herbicide 320 g/ha
Procedure, shortened: as §2

rice flat sedge = experiment: Test Example 3: herbicidal effect by foliage application, Wagner pot (Table 18, symbol E); assay type: in vivo, rice flat sedge (Cyperus iria); conditions: 320 g/ha
Procedure, shortened: (§3)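 Plants were sown in alluvial soil held under 0.1–0.5 cm standing water and grown 14 days in a greenhouse at 25–30 °C. An emulsifiable formulation, water-diluted to the set dose, was then sprayed onto the foliage, and effects were scored three weeks later using previously defined criteria.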

chickweed [5] = experiment: Test Example 4: herbicidal effect by soil treatment (Table 19, symbol P); assay type: in vivo, common chickweed (Stellaria media); conditions: amount of applied herbicide 320 g/ha
Procedure, shortened: as §2

oval-leafed pondweed = experiment: Test Example 1: herbicidal activity, application before weed generation under submerged conditions (Table 16, symbol C); assay type: in vivo, oval-leafed pondweed (Monochoria vaginalis); conditions: amount of applied herbicide 320 g/ha
Procedure, shortened: (§4)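 Submerged Wagner pots (alluvial soil, 4 cm water) sown with weed seeds and planted with 2.5-leaf rice seedlings; emulsifiable concentrate diluted in water applied to water surface on sowing day. Held in greenhouse at 25-30 °C; injury scored 0-5 by herbicidal rate after three weeks.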

persian speedwell [6] = experiment: Test Example 4: herbicidal effect by soil treatment (Table 19, symbol R); assay type: in vivo, Persian speedwell (Veronica persica); conditions: amount of applied herbicide 320 g/ha
Procedure, shortened: as §2

persian speedwell [7] = experiment: Test Example 5: herbicidal effect by foliage application, plastic box (Table 20, symbol R); assay type: in vivo, Persian speedwell (Veronica persica); conditions: amount of applied herbicide 320 g/ha; foliage application after 14-day growth; evaluated three weeks after application
Procedure, shortened: as §1

redroot pigweed [8] = experiment: Test Example 5: herbicidal effect by foliage application, plastic box (Table 20, symbol N); assay type: in vivo, redroot pigweed (Amaranthus retroflexus); conditions: amount of applied herbicide 320 g/ha; foliage application after 14-day growth; evaluated three weeks after application
Procedure, shortened: as §1

southern crabgrass [9] = experiment: Test Example 5: herbicidal effect by foliage application, plastic box (Table 20, symbol F); assay type: in vivo, southern crabgrass (Digitaria ciliaris); conditions: amount of applied herbicide 320 g/ha; foliage application after 14-day growth; evaluated three weeks after application
Procedure, shortened: as §1

wild oat [10] = experiment: Test Example 4: herbicidal effect by soil treatment (Table 19, symbol I); assay type: in vivo, wild oat (Avena fatua); conditions: amount of applied herbicide 320 g/ha
Procedure, shortened: as §2

Japanese bulrush = experiment: Test Example 1: herbicidal activity, application before weed generation under submerged conditions (Table 16, symbol B); assay type: in vivo, Japanese bulrush (Schoenoplectus juncoides); conditions: amount of applied herbicide 320 g/ha
Procedure, shortened: as §4

green foxtail [11] = experiment: Test Example 4: herbicidal effect by soil treatment (Table 19, symbol G); assay type: in vivo, green foxtail (Setaria viridis); conditions: amount of applied herbicide 320 g/ha
Procedure, shortened: as §2

lambsquarters [12] = experiment: Test Example 5: herbicidal effect by foliage application, plastic box (Table 20, symbol O); assay type: in vivo, lambsquarters (Chenopodium album); conditions: amount of applied herbicide 320 g/ha; foliage application after 14-day growth; evaluated three weeks after application
Procedure, shortened: as §1

chickweed [13] = experiment: Test Example 5: herbicidal effect by foliage application, plastic box (Table 20, symbol P); assay type: in vivo, common chickweed (Stellaria media); conditions: amount of applied herbicide 320 g/ha; foliage application after 14-day growth; evaluated three weeks after application
Procedure, shortened: as §1

barnyard grass [14] = experiment: Test Example 5: herbicidal effect by foliage application, plastic box (Table 20, symbol H); assay type: in vivo, barnyard grass (Echinochloa crus-galli); conditions: amount of applied herbicide 320 g/ha; foliage application after 14-day growth; evaluated three weeks after application
Procedure, shortened: as §1

wild oat [15] = experiment: Test Example 5: herbicidal effect by foliage application, plastic box (Table 20, symbol I); assay type: in vivo, wild oat (Avena fatua); conditions: amount of applied herbicide 320 g/ha; foliage application after 14-day growth; evaluated three weeks after application
Procedure, shortened: as §1

lambsquarters [16] = experiment: Test Example 4: herbicidal effect by soil treatment (Table 19, symbol O); assay type: in vivo, lambsquarters (Chenopodium album); conditions: amount of applied herbicide 320 g/ha
Procedure, shortened: as §2

Italian ryegrass [17] = experiment: Test Example 4: herbicidal effect by soil treatment (Table 19, symbol K); assay type: in vivo, Italian ryegrass (Lolium multiflorum); conditions: amount of applied herbicide 320 g/ha
Procedure, shortened: as §2

blackgrass [18] = experiment: Test Example 5: herbicidal effect by foliage application, plastic box (Table 20, symbol J); assay type: in vivo, blackgrass (Alopecurus myosuroides); conditions: amount of applied herbicide 320 g/ha; foliage application after 14-day growth; evaluated three weeks after application
Procedure, shortened: as §1

windgrass [19] = experiment: Test Example 5: herbicidal effect by foliage application, plastic box (Table 20, symbol L); assay type: in vivo, windgrass (Apera spica-venti); conditions: amount of applied herbicide 320 g/ha; foliage application after 14-day growth; evaluated three weeks after application
Procedure, shortened: as §1

late watergrass = experiment: Test Example 1: herbicidal activity, application before weed generation under submerged conditions (Table 16, symbol A); assay type: in vivo, late watergrass (Echinochloa oryzicola); conditions: amount of applied herbicide 320 g/ha
Procedure, shortened: as §4

barnyard grass [20] = experiment: Test Example 3: herbicidal effect by foliage application, Wagner pot (Table 18, symbol H); assay type: in vivo, barnyard grass (Echinochloa crus-galli); conditions: 320 g/ha
Procedure, shortened: as §3

green foxtail [21] = experiment: Test Example 5: herbicidal effect by foliage application, plastic box (Table 20, symbol G); assay type: in vivo, green foxtail (Setaria viridis); conditions: amount of applied herbicide 320 g/ha; foliage application after 14-day growth; evaluated three weeks after application
Procedure, shortened: as §1

velvetleaf [22] = experiment: Test Example 5: herbicidal effect by foliage application, plastic box (Table 20, symbol M); assay type: in vivo, velvetleaf (Abutilon theophrasti); conditions: amount of applied herbicide 320 g/ha; foliage application after 14-day growth; evaluated three weeks after application
Procedure, shortened: as §1

blackgrass [23] = experiment: Test Example 4: herbicidal effect by soil treatment (Table 19, symbol J); assay type: in vivo, blackgrass (Alopecurus myosuroides); conditions: amount of applied herbicide 320 g/ha
Procedure, shortened: as §2

southern crabgrass [24] = experiment: Test Example 4: herbicidal effect by soil treatment (Table 19, symbol F); assay type: in vivo, southern crabgrass (Digitaria ciliaris); conditions: amount of applied herbicide 320 g/ha
Procedure, shortened: as §2

windgrass [25] = experiment: Test Example 4: herbicidal effect by soil treatment (Table 19, symbol L); assay type: in vivo, windgrass (Apera spica-venti); conditions: amount of applied herbicide 320 g/ha
Procedure, shortened: as §2

Chinese sprangletop = experiment: Test Example 3: herbicidal effect by foliage application, Wagner pot (Table 18, symbol D); assay type: in vivo, chinese sprangletop (Leptochloa chinensis); conditions: 320 g/ha
Procedure, shortened: as §3

| SMILES | Herbicidal effect by foliage application, K: Italian ryegrass (Italian ryegrass [1]) | herbicidal effect on rice flat sedge (E) (rice flat sedge) | Herbicidal effect, C: oval-leafed pondweed (oval-leafed pondweed) | Herbicidal effect by foliage application, R: persian speedwell (persian speedwell [7]) | Herbicidal effect by foliage application, N: redroot pigweed (redroot pigweed [8]) | Herbicidal effect by foliage application, F: southern crabgrass (southern crabgrass [9]) | Herbicidal effect, B: Japanese bulrush (Japanese bulrush) | Herbicidal effect by foliage application, O: lambsquarters (lambsquarters [12]) | Herbicidal effect by foliage application, P: chickweed (chickweed [13]) | Herbicidal effect by foliage application, H: barnyard grass (barnyard grass [14]) | Herbicidal effect by foliage application, I: wild oat (wild oat [15]) | Herbicidal effect by foliage application, J: blackgrass (blackgrass [18]) | Herbicidal effect by foliage application, L: windgrass (windgrass [19]) | Herbicidal effect, A: late watergrass (late watergrass) | herbicidal effect on barnyard grass (H) (barnyard grass [20]) | Herbicidal effect by foliage application, G: green foxtail (green foxtail [21]) | Herbicidal effect by foliage application, M: velvetleaf (velvetleaf [22]) | herbicidal effect on Chinese sprangletop (D) (Chinese sprangletop) | also measured |
| --- | --- | --- | --- | --- | --- | --- | --- | --- | --- | --- | --- | --- | --- | --- | --- | --- | --- | --- | --- |
| CSc1ccc(-c2sc3c(C)cccc3c2-c2c(O)c(C)nn(C)c2=O)cc1 [4-118] | 5 (Herbicidal rate of 90% or more (almost completely withered)) | 4 (Herbicidal rate of 70% or more and less than 90%) | 2 (Herbicidal rate of 20% or more and less than 40%) | 5 (Herbicidal rate of 90% or more (almost completely withered)) | 5 (Herbicidal rate of 90% or more (almost completely withered)) | 3 (Herbicidal rate of 40% or more and less than 70%) | 2 (Herbicidal rate of 20% or more and less than 40%) | 5 (Herbicidal rate of 90% or more (almost completely withered)) | 5 (Herbicidal rate of 90% or more (almost completely withered)) | 3 (Herbicidal rate of 40% or more and less than 70%) | 3 (Herbicidal rate of 40% or more and less than 70%) | 5 (Herbicidal rate of 90% or more (almost completely withered)) | 5 (Herbicidal rate of 90% or more (almost completely withered)) | 3 (Herbicidal rate of 40% or more and less than 70%) | 4 (Herbicidal rate of 70% or more and less than 90%) | 3 (Herbicidal rate of 40% or more and less than 70%) | 5 (Herbicidal rate of 90% or more (almost completely withered)) | 3 (Herbicidal rate of 40% or more and less than 70%) | Herbicidal effect by soil treatment, N: redroot pigweed (redroot pigweed [2]): 5 (Herbicidal rate of 90% or more (almost completely withered)); Herbicidal effect by soil treatment, M: velvetleaf (velvetleaf [3]): 3 (Herbicidal rate of 40% or more and less than 70%); Herbicidal effect by soil treatment, H: barnyard grass (barnyard grass [4]): 0 (Herbicidal rate of 5% or less (almost no effect)); Herbicidal effect by soil treatment, P: chickweed (chickweed [5]): 4 (Herbicidal rate of 70% or more and less than 90%); Herbicidal effect by soil treatment, R: persian speedwell (persian speedwell [6]): 4 (Herbicidal rate of 70% or more and less than 90%); Herbicidal effect by soil treatment, I: wild oat (wild oat [10]): 0 (Herbicidal rate of 5% or less (almost no effect)); Herbicidal effect by soil treatment, G: green foxtail (green foxtail [11]): 0 (Herbicidal rate of 5% or less (almost no effect)); Herbicidal effect by soil treatment, O: lambsquarters (lambsquarters [16]): 5 (Herbicidal rate of 90% or more (almost completely withered)); Herbicidal effect by soil treatment, K: Italian ryegrass (Italian ryegrass [17]): 5 (Herbicidal rate of 90% or more (almost completely withered)); Herbicidal effect by soil treatment, J: blackgrass (blackgrass [23]): 0 (Herbicidal rate of 5% or less (almost no effect)); Herbicidal effect by soil treatment, F: southern crabgrass (southern crabgrass [24]): 0 (Herbicidal rate of 5% or less (almost no effect)); Herbicidal effect by soil treatment, L: windgrass (windgrass [25]): 0 (Herbicidal rate of 5% or less (almost no effect)) |
| CCCC(=O)Oc1c(C)nn(C)c(=O)c1-c1c(-c2ccc(OC)cc2)sc2cc(F)c(F)cc12 [5-015] | 0 (Herbicidal rate of 5% or less (almost no effect)) | 3 (Herbicidal rate of 40% or more and less than 70%) | 0 (Herbicidal rate of 5% or less (almost no effect)) | 5 (Herbicidal rate of 90% or more (almost completely withered)) | 5 (Herbicidal rate of 90% or more (almost completely withered)) | 0 (Herbicidal rate of 5% or less (almost no effect)) | 0 (Herbicidal rate of 5% or less (almost no effect)) | 5 (Herbicidal rate of 90% or more (almost completely withered)) | 5 (Herbicidal rate of 90% or more (almost completely withered)) | 0 (Herbicidal rate of 5% or less (almost no effect)) | 0 (Herbicidal rate of 5% or less (almost no effect)) | 0 (Herbicidal rate of 5% or less (almost no effect)) | 0 (Herbicidal rate of 5% or less (almost no effect)) | 3 (Herbicidal rate of 40% or more and less than 70%) | 2 (Herbicidal rate of 20% or more and less than 40%) | 0 (Herbicidal rate of 5% or less (almost no effect)) | 4 (Herbicidal rate of 70% or more and less than 90%) | 2 (Herbicidal rate of 20% or more and less than 40%) | N: redroot pigweed, herbicidal effect grade (redroot pigweed [2]): 4 (Herbicidal rate of 70% or more and less than 90%); M: velvetleaf, herbicidal effect grade (velvetleaf [3]): 0 (Herbicidal rate of 5% or less (almost no effect)); H: barnyard grass, herbicidal effect grade (barnyard grass [4]): 0 (Herbicidal rate of 5% or less (almost no effect)); P: chickweed, herbicidal effect grade (chickweed [5]): 3 (Herbicidal rate of 40% or more and less than 70%); R: persian speedwell, herbicidal effect grade (persian speedwell [6]): 5 (Herbicidal rate of 90% or more (almost completely withered)); I: wild oat, herbicidal effect grade (wild oat [10]): 0 (Herbicidal rate of 5% or less (almost no effect)); G: green foxtail, herbicidal effect grade (green foxtail [11]): 0 (Herbicidal rate of 5% or less (almost no effect)); O: lambsquarters, herbicidal effect grade (lambsquarters [16]): 4 (Herbicidal rate of 70% or more and less than 90%); K: Italian ryegrass, herbicidal effect grade (Italian ryegrass [17]): 0 (Herbicidal rate of 5% or less (almost no effect)); J: blackgrass, herbicidal effect grade (blackgrass [23]): 0 (Herbicidal rate of 5% or less (almost no effect)); F: southern crabgrass, herbicidal effect grade (southern crabgrass [24]): 0 (Herbicidal rate of 5% or less (almost no effect)); L: windgrass, herbicidal effect grade (windgrass [25]): 0 (Herbicidal rate of 5% or less (almost no effect)) |
